From PubChem BioAssay (NCI)
“And” between values parts separate entries of the source, which are not always exact repeats. Equal entries are not always repeated.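 Cultured in 96-well plates, cells were exposed to test compound for 48 hours across five concentrations. GI50 is the concentration that inhibits growth by half. TGI: concentration producing complete growth inhibition.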

Key:
Experiment in all cases: NCI-60 cell line screen, 48 h
DU-145 prostate = system: DU-145 prostate
HCC-2998 colon = system: HCC-2998 colon
IGROV1 ovarian = system: IGROV1 ovarian
LOX IMVI melanoma = system: LOX IMVI melanoma
NCI/ADR-RES ovarian = system: NCI/ADR-RES ovarian
OVCAR-3 ovarian = system: OVCAR-3 ovarian
OVCAR-5 ovarian = system: OVCAR-5 ovarian
PC-3 prostate = system: PC-3 prostate
SW-620 colon = system: SW-620 colon
CAKI-1 renal = system: CAKI-1 renal

Structure (SMILES) | GI50 (DU-145 prostate) [µM] | TGI (DU-145 prostate) [µM] | GI50 (HCC-2998 colon) [µM] | TGI (HCC-2998 colon) [µM] | GI50 (IGROV1 ovarian) [µM] | TGI (IGROV1 ovarian) | GI50 (LOX IMVI melanoma) [µM] | TGI (LOX IMVI melanoma) | GI50 (NCI/ADR-RES ovarian) [µM] | TGI (NCI/ADR-RES ovarian) [µM] | GI50 (OVCAR-3 ovarian) [µM] | TGI (OVCAR-3 ovarian) | GI50 (OVCAR-5 ovarian) [µM] | TGI (OVCAR-5 ovarian) [µM] | GI50 (PC-3 prostate) [µM] | TGI (PC-3 prostate) [µM] | GI50 (SW-620 colon) [µM] | TGI (SW-620 colon) [µM] | TGI (CAKI-1 renal) | GI50 (CAKI-1 renal) [µM]
O=C1c2ccccc2C(=O)c2c1ccc(C(Br)Br)c2[N+](=O)[O-] | 1.98 | 4.01 | 2.08 | 4.6 | 1.15 | 2.87 µM | 1.27 | 2.59 µM | 2.01 | 6.56 | 1.63 | 3.04 µM | 1.72 | 4.4 | 1.74 | 3.47 | 0.488 | 2.07 | – | –
Cc1cccc(NC(=O)C(=O)C2C(=O)NC(=O)NC2=O)c1C | – | – | – | > 100 | – | > 100 µM | – | > 100 µM | – | – | – | > 100 µM | – | > 100 | – | – | – | > 100 | > 100 µM | –
COC(=O)C(=O)C1(CCC(C)=O)c2ccccc2-c2ccccc21 | – | – | – | > 100 | – | > 100 µM | – | > 100 µM | – | – | – | > 100 µM | – | > 100 | – | – | – | > 100 | > 100 µM | –
CCOC(=O)C1N(S(=O)(=O)c2ccc(C)cc2)CCC12c1ccccc1N(C(C)=O)C2C(/C=C/C(=O)OC)=C/C(=O)OC (stereo unspecified) | – | – | – | > 100 | – | > 100 µM | – | > 100 µM | – | – | – | > 100 µM | – | > 100 | – | – | – | > 100 | > 100 µM | –
CC(C)[C@@H]1C=C(c2ccccc2)c2ccccc2C1C(C#N)(C#N)C(C)C (stereo partly specified) | – | – | – | > 100 | – | > 100 µM | – | > 100 µM | – | – | – | > 100 µM | – | > 100 | – | – | – | > 100 | – | –
Cc1cc(C)cc(-n2c3nc(=O)n(C)c(=O)c-3nc3ccccc32)c1 | – | – | – | 49.9 | – | 94.6 µM | – | 91.8 µM | – | – | – | 12.6 µM | – | 93.1 | – | – | – | 40.7 | 87.3 µM | –
Cc1cnc[nH]c1=O | – | – | – | > 100 | – | > 100 µM | – | > 100 µM | – | – | – | > 100 µM | – | > 100 | – | – | – | > 100 | > 100 µM | –
COC(=O)C[CH](C(=O)OC)[Ge]([CH3])([CH3])[S]c1ccccc1 (stereo unspecified) | – | – | 40.4 | > 100 | 0.463 | 2.2 µM | 4.92 | 17.1 µM | – | – | 15.1 | 38.8 µM | 18.7 | 42.6 | – | – | 13 | 26.8 | 47.8 µM | 20.8
N/C(=N\NS(=O)(=O)c1ccccc1)Oc1ccc(Cl)cc1 | – | – | – | > 100 | – | > 100 µM | – | > 100 µM | – | – | – | > 100 µM | – | > 100 | – | – | – | 19.5 | > 100 µM | –
C/C1=C\[C@H](C)C[C@H](C)OC(=O)C[C@H](c2ccc(O)cc2)NC(=O)[C@@H](Cc2c(Br)[nH]c3ccccc23)N(C)C(=O)[C@H](C)NC(=O)[C@@H](C)C1 | – | – | 0.43 | 2.27 | 0.023 | 0.265 µM and 0.0602 µM | 0.0135 | 0.317 µM and 0.0533 µM | 0.0706 | 2.02 | 0.0393 | 0.323 µM and 0.255 µM | 0.261 | > 20.3 | – | – | 0.0347 | > 100 | 0.2 µM and 0.0985 µM | 0.0272
O=c1[nH]cc(CS(=O)(=O)Cc2c[nH]c(=O)[nH]c2=O)c(=O)[nH]1 | – | > 100 | – | – | – | > 100 µM | – | > 100 µM | – | > 100 | – | – | – | > 100 | – | > 100 | – | > 100 | > 100 µM | –
CCCCCCCCCCCC(=O)OCC1OC(n2cc(F)c(=O)[nH]c2=O)C(NC(=O)OCc2ccccc2)C(O)C1O (stereo unspecified) | – | – | – | 32.9 | – | > 100 µM | – | 32.4 µM | – | – | – | 68.4 µM | – | – | – | – | – | 41.5 | > 100 µM | –
Cc1cc(NS(=O)(=O)c2ccc(Nc3c4ccccc4nc4c(C(=O)Nc5ccc(S(=O)(=O)N=C(N)N)cc5)cccc34)cc2)no1 | – | – | – | > 100 | – | > 100 µM | – | > 100 µM | – | – | – | > 100 µM | – | > 100 | – | – | – | > 100 | > 100 µM | –
C=CN1C(=O)OC(c2ccccc2)C1c1ccccc1 (stereo unspecified) | – | – | > 100 | > 100 | > 100 | > 100 µM | – | > 100 µM | – | – | > 100 | > 100 µM | – | > 100 | – | – | – | > 100 | > 100 µM | > 100
O=C(/C=C/c1ccc(C(F)(F)F)cc1)c1ccc(Nc2nc(NCCO)nc(NCCO)n2)cc1 | 4.03 | 14.3 | 3.25 | 11.2 | 3 | 9.51 µM | 1.56 | 3 µM | 15.2 | 35 | 2.02 | 4.19 µM | 2.85 | 14.1 | 3.29 | 13.1 | 1.97 | 4.25 | – | –
COc1ccc2cccc(C(=O)c3ccc(C)c4c3CCC4)c2c1 | – | – | – | 43.1 | – | 99.2 µM | – | 38.8 µM | – | – | – | > 100 µM | – | > 100 | – | – | – | > 100 | 80.8 µM | –
Cc1ccc(S(=O)(=O)N(/N=C(\N)Oc2ccc(Cl)cc2)C(=N)Oc2ccc(Cl)cc2)cc1 | – | – | – | > 100 | – | > 100 µM | – | > 100 µM | – | – | – | > 100 µM | – | > 100 | – | – | – | > 100 | > 100 µM | –
CCC1C(C)c2c([nH]c3ccccc23)C2C(=O)N(c3ccccc3)C(=O)C21 (stereo unspecified) | – | – | – | 28.9 | – | 22.3 µM | – | 31.8 µM | – | – | – | 27.1 µM | – | – | – | – | – | 35.9 | – | –
COC(=O)/C=C/C(=O)C1C(C(=O)OC)C2(C(=O)OC)CCC1(C(=O)OC)N2 (stereo unspecified) | – | – | – | > 100 | – | > 100 µM | – | – | – | – | – | > 100 µM | – | > 100 | – | – | – | – | > 100 µM | –
C=C(C=O)C1CC(=O)C(C(=O)OC)[C@@H]2O[C@@](C)(CC2=O)C[C@@H]2OC(=O)[C@]3(O[C@@H]23)[C@@H](C(=O)OC)C1 (stereo partly specified) | 28.9 | > 100 | 14.4 | 30.8 | 4.56 | 48.3 µM | 7.94 | 21.3 µM | 46.4 | > 100 | 12.8 | 32.8 µM | 23.1 | 51.2 | 19.3 | 57.6 | 12.2 | 47.3 | – | –
O=P(Oc1ccc(Cl)cc1)(Oc1ccc(Cl)cc1)N1CC1 | – | > 10 | – | > 10 | – | – | – | > 10 µM | – | > 10 | – | > 10 µM | – | > 10 | – | > 10 | – | > 10 | – | –
